≈ marks a conversion by molar mass, not a printed value. Where “and” joins values, the source holds several entries; their conditions need not be identical. Equal entries are not always repeated. Where two headings read alike, the source gives them in different places. Each block holds one compound with its values, some of them ahead of it.
Key:
[1] = Solubility in water (UV-visible spectrometry); format: physicochemical; conditions: for solubility: water
Source text: The hydrophobicity or solubility of a compound can be measured by standard methods and in particular by UV-visible spectrometry.

[2] = NaCl extraction from 0.2M NaCl water by ASM/CEM composition, ion chromatography of treated water; conditions: ASM: 3TFMPhOH; CEM 0.2M; NaCl 0.2M water
Description: To 3 mL of 3-(trifluoromethyl)phenol, was added 217 mg of Dibenzo-18-crown-6 in order to obtain a formulation with 0.2 mole/L of DB18C6. This sealed formulation was then orbitally stirred at 500 rpm overnight after 1 mL of distilled water was added twice to allow water saturation of the whole.
The next morning, an aqueous 0.2 mol/L NaCl solution was prepared from twice distilled water, while the formulation that was stirred overnight was allowed to stand for decantation. A clear decantation of the two colorless phases is obtained in a few minutes. 3 mL of the organic extraction solution is then removed and transferred to a flask containing 3 mL of this salt water containing 0.2 M NaCl, then the flask is sealed and orbitally stirred (usually 500 rpm), for 3 hours and at room temperature. It is verified that droplets of the order of 1-2 mm are present in quantity at the selected stirring speed (400 to 900 rpm).
After stirring for 2 hours, stirring is stopped and the whole is left to stand for decantation for at least 10 minutes until the two phases are completely separated. The upper aqueous phase is then removed and then stirred and diluted for analysis of its salinity by a Metrohm Ion Chromatography Incorporating a suitable cation analysis column and a suitable anion analysis column. Similarly, the initial aqueous solution of 0.2M NaCl is also analyzed by this ion chromatography equipment to determine its relative concentration of sodium and chlorides. […]

[3] = methanol, published complexing constants, cited from earlier work
[4] = NaCl extraction from 0.4M NaCl water by ASM + Calix[4]Est in chloroform (Example 11)
Description: The extraction composition is obtained by solubilizing an amount of 4-tert-butyl Calix[4]arene tetraethyl Ester (CAS No. 97600-39-0) and ASM in chloroform CHCl3 to obtain a final concentration after solubilization of the CEM and ASM of 0.3 mol/L for Calix[4]Est and of 0.3 mol/L for ASM, respectively. These sealed formulations were then orbitally stirred at 500 rpm for 2 hours after adding an equivalent volume of twice distilled water to allow water saturation of the entire formulation and control of pH output (pH=7). The extraction composition is then put to stand to settle. All the compositions tested are stable and rapidly decanted (a few minutes at the most).
A 0.4 mol/L NaCl aqueous solution was prepared from twice distilled water.
The organic extraction composition is then slightly heated to promote solubilization of the compounds by hot air gun (temperature of about 50 to 60° C.) for a few seconds (10 to 30 seconds) until a clear solution is obtained.
3 mL of the organic extraction composition is then removed from the lower phase of the settled two-phase mixture and transferred to a vial containing 3 mL of salt water at 0.4 M NaCl and then the flask is sealed and orbitally stirred (at 500 revolutions per minute), for 2 hours at room temperature (RT), that is to say between 20 and 25° C. In the case of extraction at 60° C., magnetic stirring (at 500 revolutions per minute), for 2 hours, is carried out with indirect heating in a metal mold on a heating plate. It is verified that droplets of the order of 1-2 mm are present during these agitations in order to be certain to achieve equilibrium in the NaCl distribution between the two liquid phases at the end of stirring. The appearance of the organic and aqueous phases is clear and colorless or slightly cloudy.
After stirring for 2 hours, stirring is stopped and the solution is put to stand to settle within 10 minutes, at least until the two phases have completely separated off, at the temperature of the test. The upper aqueous phase is then removed and then stirred and diluted for analysis of its salinity by a Metrohm Ion Chromatograph incorporating a suitable cation analysis column and a suitable anion analysis column. Similarly, the initial aqueous solution of NaCl at 0.4M is also analyzed by this ion chromatograph to determine its relative molar concentration in sodium and in chlorides. AN extractions and analyzes were duplicated.

[5] = RT, CEM 0.3 Mol/L, ASM 0.3 Mol/L in CHCl3, 0.4 M NaCl

- Solubility in water [1]: < 1.10^−6 mMole/L
Compound: 4-tert-Butylcalix[4]arene-O,O′,O″,O′′′- tetraacetic Acid Tetraethyl Ester [Calix[4]Est]
- Extraction rate at 23° C., Cl− [2]: 77%
- Extraction rate at 23° C., Na+ [2]: 75%
- Extraction rate at 23° C., mean NaCl [2]: 76%
- Log K(Na+, MeOH, 25° C.) ([3]; listed as Calix4Est): 5.0-5.7
- Log K(Na+, MeOH, 25° C.) [3]: 5.0

- solubility ([1]; read-out: Solubility in water): 480 µM (≈ 137 µg/mL)
Compound: CCCC(O)c1cc(C(F)(F)F)cc(C(F)(F)F)c1 (stereo not drawn)

- solubility ([1]; read-out: Solubility in water): 70 µM (≈ 22.4 µg/mL)
Compound: OC(c1cccc(C(F)(F)F)c1)c1cccc(C(F)(F)F)c1

Compound: Nc1cc(C(F)(F)F)cc(C(F)(F)F)c1 [AnilineF*, 3,5-Di(trifluoromethyl)aniline, reference compound]
- NaCl - 20° C. % ext (average) ([4]; 20° C., average molar extraction): 2.7%
- Mol % Cl- extracted from the water to be treated ([4]; 60° C., CEM 0.3 Mol/L, ASM 0.3 Mol/L in CHCl3, 0.4 M NaCl): not detected
- NaCl - 60° C. % ext (average) ([4]; 60° C., average molar extraction): 0.0%
- Mol % Cl- extracted from the water to be treated [4, 5]: 4.3% and 2.9%
- Mol % Na+ extracted from the water to be treated [4, 5]: 2.0% and 1.8%
- Δ % ext ([4]; difference 20° C. minus 60° C.): 2.7%

Compound: CC(O)c1cccc(C(F)(F)C(F)(F)C(F)(F)F)c1 (stereo not drawn)
- solubility [1]: 420 µM (≈ 122 µg/mL)

Reference: US11731933B2, “Device and method for the desalination of water by means of thermal deionisation and liquid-phase ion extraction liquid” (ADIONICS, priority 2015, dated 2023)
